ChEMBL document CHEMBL1201862, “PubChem BioAssay data set” (2004)
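48-hour exposure; five concentrations; linearly interpolated endpoints. The concentration for 50% growth inhibition is given as GI50.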 Active and inactive are the calls of the source. Cut-off read from the data, not from the text of the source: active = GI50 up to about 1.1 µM and inactive = higher.

What was measured:
Assay in all cases: NCI tumour cell line growth inhibition, 48 h
U-251 = test system: U-251
HCT-15 = test system: HCT-15
ACHN = test system: ACHN
NCI-H226 = test system: NCI-H226
NCI-H460 = test system: NCI-H460
SK-OV-3 = test system: SK-OV-3
SF-539 = test system: SF-539
UACC-257 = test system: UACC-257
M14 = test system: M14
A549 = test system: A549
SNB-75 = test system: SNB-75
NCI-H522 = test system: NCI-H522
KM12 = test system: KM12
SK-MEL-2 = test system: SK-MEL-2
HT-29 = test system: HT-29
Malme-3M = test system: Malme-3M
EKVX = test system: EKVX
RPMI-8226 = test system: RPMI-8226

Compound | GI50 (U-251) | GI50 (HCT-15) | GI50 (ACHN) | GI50 (NCI-H226) | GI50 (NCI-H460) | GI50 (SK-OV-3) | GI50 (SF-539) | GI50 (UACC-257) | GI50 (M14) | GI50 (A549) | GI50 (SNB-75) | GI50 (NCI-H522) | GI50 (KM12) | GI50 (SK-MEL-2) | GI50 (HT-29) | GI50 (Malme-3M) | GI50 (EKVX) | GI50 (RPMI-8226)
O=C(NN1C(=O)C(Cl)C1c1ccc(O)cc1)c1ccccc1O (configuration not stated) | 14.3 µM (inactive) | 14.6 µM | 19.1 µM (inactive) | 16 µM (inactive) | 17.5 µM (inactive) | 25.8 µM (inactive) | 23.4 µM (inactive) | 20.7 µM (inactive) | 22.2 µM (inactive) | 22.4 µM (inactive) | 34.8 µM (inactive) | 18.1 µM (inactive) | 14 µM (inactive) | 19.9 µM (inactive) | 18.4 µM (inactive) | 18.6 µM (inactive) |  | 
O=C1C=C(O)c2nc(O)ccc2C1=O | > 100 µM (inactive) | > 100 µM | > 100 µM (inactive) | > 100 µM (inactive) | > 100 µM (inactive) | > 100 µM (inactive) | > 100 µM (inactive) | > 100 µM (inactive) | > 100 µM (inactive) | > 100 µM (inactive) | > 100 µM (inactive) | > 100 µM (inactive) |  |  | > 100 µM (inactive) | > 100 µM (inactive) | > 100 µM (inactive) | > 100 µM (inactive)
CCc1cccc(C(C)C)c1C1C(=O)C(=O)N(c2nc3ccccc3s2)C(=O)C1=O | > 100 µM (inactive) | > 100 µM | > 100 µM (inactive) | > 100 µM (inactive) | > 100 µM (inactive) | > 100 µM (inactive) | > 100 µM (inactive) | > 100 µM (inactive) | > 100 µM (inactive) | > 100 µM (inactive) | > 100 µM (inactive) |  | > 100 µM (inactive) | > 100 µM (inactive) | > 100 µM (inactive) | > 100 µM (inactive) | > 100 µM (inactive) | > 100 µM (inactive)
Cc1cc(C)[n+]2c(c1)C=CC2.[O-][Cl+3]([O-])([O-])[O-] | 29.7 µM (inactive) |  | 17.7 µM (inactive) | 15.6 µM (inactive) | 34.8 µM (inactive) |  | 22.8 µM (inactive) | 11.5 µM (inactive) | 8.11 µM (inactive) | 18.1 µM (inactive) | 6.05 µM (inactive) | 3.21 µM (inactive) | 27.6 µM (inactive) | 11 µM (inactive) | 15.9 µM (inactive) | 1.65 µM (inactive) | 21.6 µM (inactive) | 
CC(=O)NCc1c(C(N)=O)ncn1Cc1ccccc1 | > 100 µM (inactive) | > 100 µM | > 100 µM (inactive) |  | > 100 µM (inactive) | > 100 µM (inactive) | > 100 µM (inactive) | > 100 µM (inactive) | > 100 µM (inactive) | > 100 µM (inactive) | > 100 µM (inactive) |  |  |  | > 100 µM (inactive) |  | > 100 µM (inactive) | > 100 µM (inactive)
CC(=O)Nc1ccc(C(=O)N2N=C(C)/C(=C/c3ccc(O)cc3)C2=O)cc1 | > 100 µM (inactive) | > 100 µM | > 100 µM (inactive) | > 100 µM (inactive) | > 100 µM (inactive) |  | > 100 µM (inactive) | > 100 µM (inactive) |  | > 100 µM (inactive) | > 100 µM (inactive) | > 100 µM (inactive) | > 100 µM (inactive) | > 100 µM (inactive) | > 100 µM (inactive) | > 100 µM (inactive) | > 100 µM (inactive) | > 100 µM (inactive)
O/N=C1/C(=C/c2ccc(Oc3ccccc3)cc2)CCCC1C(NO)c1ccc(Oc2ccccc2)cc1 (configuration not stated) | 51.2 µM (inactive) | 47 µM | 24 µM (inactive) | 25.1 µM (inactive) | 27.9 µM (inactive) | > 100 µM (inactive) | 40 µM (inactive) | 50.1 µM (inactive) | 40.6 µM (inactive) | 13.8 µM (inactive) | 69.8 µM (inactive) |  | 22.3 µM (inactive) | 45.6 µM (inactive) | 16.1 µM (inactive) | 44.1 µM (inactive) | 81.3 µM (inactive) | 18.2 µM (inactive)
CCCN(CCC)C1=Nc2ccccc2-n2cnnc2C1 | > 100 µM (inactive) | > 100 µM | > 100 µM (inactive) | > 100 µM (inactive) | > 100 µM (inactive) |  | > 100 µM (inactive) |  | > 100 µM (inactive) | > 100 µM (inactive) |  | 37.8 µM (inactive) | > 100 µM (inactive) | > 100 µM (inactive) | > 100 µM (inactive) | > 100 µM (inactive) | > 100 µM (inactive) | > 100 µM (inactive)
COc1ccc(C(c2c(O)c3ccccc3n(-c3ccccc3)c2=O)c2c(O)c3ccccc3n(-c3ccccc3)c2=O)cc1 | > 100 µM (inactive) | > 100 µM | > 100 µM (inactive) | > 100 µM (inactive) |  |  | > 100 µM (inactive) |  |  | > 100 µM (inactive) |  | > 100 µM (inactive) | > 100 µM (inactive) | > 100 µM (inactive) |  | > 100 µM (inactive) | > 100 µM (inactive) | > 100 µM (inactive)
